Calls of active or inactive are those of the source. The calls are words filed in the database; no cut-off is given here.
Key:
[1] = molecular target: T1, Bromodomain-containing protein 2 (Homo sapiens, UniProt P25440); assay: BRD2(1) DiscoverX BROMOscan
[2] = molecular target: 5-hydroxytryptamine receptor 3A (Homo sapiens) (UniProt P46098); conditions: Compound concentration 10.0 uM
[3] = molecular target: Bromodomain adjacent to zinc finger domain protein 2B (Homo sapiens, UniProt Q9UIF8); assay: BAZ2B DiscoverX BROMOscan
[4] = molecular target: Mu-type opioid receptor (Homo sapiens, UniProt P35372); conditions: Compound concentration 10.0 uM
[5] = molecular target: Muscarinic acetylcholine receptor M2 (Homo sapiens) (UniProt P08172); conditions: Compound concentration 10.0 uM
[6] = molecular target: Transcription initiation factor TFIID subunit 1-like (Homo sapiens, UniProt Q8IZX4); assay: TAF1L(2) DiscoverX BROMOscan
[7] = molecular target: 5-hydroxytryptamine receptor 6 (Homo sapiens) (UniProt P50406); conditions: Compound concentration 10.0 uM
[8] = molecular target: SWI/SNF-related matrix-associated actin-dependent regulator of chromatin subfamily A member 2 (Homo sapiens, UniProt P51531); assay: SMARCA2 DiscoverX BROMOscan
[9] = molecular target: 5-hydroxytryptamine receptor 1D (Homo sapiens) (UniProt P28221); conditions: Compound concentration 10.0 uM
[10] = molecular target: ATPase family AAA domain-containing protein 2B (Homo sapiens, UniProt Q9ULI0); assay: ATAD2B DiscoverX BROMOscan
[11] = molecular target: Sigma intracellular receptor 2 (Homo sapiens) (UniProt Q5BJF2); conditions: Compound concentration 10.0 uM
[12] = molecular target: D(1A) dopamine receptor (Homo sapiens, UniProt P21728); conditions: Compound concentration 10.0 uM
[13] = molecular target: Bromodomain adjacent to zinc finger domain protein 2A (Homo sapiens, UniProt Q9UIF9); assay: BAZ2A DiscoverX BROMOscan
Bromodomain adjacent to zinc finger domain protein 2A, sequence (Q9UIF9 whole entry, the tested form may be a part): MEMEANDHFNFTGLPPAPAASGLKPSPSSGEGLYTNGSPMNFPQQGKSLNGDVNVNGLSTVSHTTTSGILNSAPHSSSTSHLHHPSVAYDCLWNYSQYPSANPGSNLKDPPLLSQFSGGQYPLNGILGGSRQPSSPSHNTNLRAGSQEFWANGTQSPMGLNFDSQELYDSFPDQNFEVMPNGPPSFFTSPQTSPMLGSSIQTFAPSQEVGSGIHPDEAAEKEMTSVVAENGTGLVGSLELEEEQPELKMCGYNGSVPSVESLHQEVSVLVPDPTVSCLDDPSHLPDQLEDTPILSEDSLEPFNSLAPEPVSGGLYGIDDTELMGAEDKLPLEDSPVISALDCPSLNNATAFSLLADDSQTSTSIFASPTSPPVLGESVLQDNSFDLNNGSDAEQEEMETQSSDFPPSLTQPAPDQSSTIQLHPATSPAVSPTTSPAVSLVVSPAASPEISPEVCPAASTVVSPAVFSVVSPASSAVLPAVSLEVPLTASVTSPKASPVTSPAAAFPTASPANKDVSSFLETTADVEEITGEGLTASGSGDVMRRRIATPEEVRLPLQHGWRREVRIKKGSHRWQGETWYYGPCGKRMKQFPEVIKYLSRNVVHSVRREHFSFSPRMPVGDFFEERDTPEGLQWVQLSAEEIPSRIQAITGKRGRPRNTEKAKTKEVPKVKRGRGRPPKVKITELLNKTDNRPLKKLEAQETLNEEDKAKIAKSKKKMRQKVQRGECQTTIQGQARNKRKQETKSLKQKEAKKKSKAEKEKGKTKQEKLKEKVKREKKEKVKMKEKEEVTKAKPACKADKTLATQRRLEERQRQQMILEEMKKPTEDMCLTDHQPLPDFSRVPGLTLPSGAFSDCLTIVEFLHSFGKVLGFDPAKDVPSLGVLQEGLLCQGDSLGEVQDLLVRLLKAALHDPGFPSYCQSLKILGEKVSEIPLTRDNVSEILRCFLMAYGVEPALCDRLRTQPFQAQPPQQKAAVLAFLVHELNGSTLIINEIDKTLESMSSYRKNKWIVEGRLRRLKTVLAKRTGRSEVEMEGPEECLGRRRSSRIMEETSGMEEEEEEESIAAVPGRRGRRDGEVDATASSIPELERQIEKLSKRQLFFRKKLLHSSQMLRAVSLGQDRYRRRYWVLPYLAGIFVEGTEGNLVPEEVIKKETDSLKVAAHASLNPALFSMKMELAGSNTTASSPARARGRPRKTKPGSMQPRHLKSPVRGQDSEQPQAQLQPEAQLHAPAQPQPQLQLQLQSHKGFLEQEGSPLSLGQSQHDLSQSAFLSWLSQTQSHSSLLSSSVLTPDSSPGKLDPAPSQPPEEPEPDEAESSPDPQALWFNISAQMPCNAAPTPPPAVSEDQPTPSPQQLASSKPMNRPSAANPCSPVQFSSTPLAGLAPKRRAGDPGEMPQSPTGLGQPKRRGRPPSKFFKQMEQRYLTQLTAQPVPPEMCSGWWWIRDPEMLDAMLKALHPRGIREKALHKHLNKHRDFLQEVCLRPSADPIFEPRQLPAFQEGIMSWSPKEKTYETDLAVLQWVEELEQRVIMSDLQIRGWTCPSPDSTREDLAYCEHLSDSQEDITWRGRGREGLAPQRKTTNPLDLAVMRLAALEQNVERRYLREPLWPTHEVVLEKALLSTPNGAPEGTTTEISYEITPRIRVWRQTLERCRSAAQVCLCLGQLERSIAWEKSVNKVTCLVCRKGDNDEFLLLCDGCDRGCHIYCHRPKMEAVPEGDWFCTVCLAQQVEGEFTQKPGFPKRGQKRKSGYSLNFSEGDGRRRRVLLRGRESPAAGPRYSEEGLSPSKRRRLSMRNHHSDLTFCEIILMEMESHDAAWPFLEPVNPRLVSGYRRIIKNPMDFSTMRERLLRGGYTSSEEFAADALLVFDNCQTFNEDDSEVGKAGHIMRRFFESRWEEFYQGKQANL

[14] = molecular target: D(4) dopamine receptor (Homo sapiens) (UniProt P21917); conditions: Compound concentration 10.0 uM
[15] = molecular target: Protein polybromo-1 (Homo sapiens, UniProt Q86U86); assay: PBRM1(5) DiscoverX BROMOscan
[16] = molecular target: D(4) dopamine receptor (Homo sapiens, UniProt P21917); assay: GPCRScan assay: inhibition of D4; set-up: radioligand conc. used [nm] 0.6 – 1.7, parental cells Stable HEK
D(4) dopamine receptor, sequence (P21917 whole entry): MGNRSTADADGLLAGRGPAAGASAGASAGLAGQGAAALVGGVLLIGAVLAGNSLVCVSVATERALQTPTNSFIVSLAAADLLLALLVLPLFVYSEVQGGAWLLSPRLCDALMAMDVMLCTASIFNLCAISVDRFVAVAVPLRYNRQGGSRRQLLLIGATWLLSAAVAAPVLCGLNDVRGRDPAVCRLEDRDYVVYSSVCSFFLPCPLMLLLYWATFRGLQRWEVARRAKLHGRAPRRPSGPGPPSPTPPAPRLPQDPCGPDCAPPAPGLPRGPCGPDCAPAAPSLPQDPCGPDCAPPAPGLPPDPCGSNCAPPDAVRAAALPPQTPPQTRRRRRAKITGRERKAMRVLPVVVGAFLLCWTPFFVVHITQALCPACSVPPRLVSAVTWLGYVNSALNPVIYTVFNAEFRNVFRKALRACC

[17] = molecular target: Bromodomain-containing protein 1 (Homo sapiens, UniProt O95696); assay: BRD1 DiscoverX BROMOscan
Bromodomain-containing protein 1, sequence (O95696 whole entry): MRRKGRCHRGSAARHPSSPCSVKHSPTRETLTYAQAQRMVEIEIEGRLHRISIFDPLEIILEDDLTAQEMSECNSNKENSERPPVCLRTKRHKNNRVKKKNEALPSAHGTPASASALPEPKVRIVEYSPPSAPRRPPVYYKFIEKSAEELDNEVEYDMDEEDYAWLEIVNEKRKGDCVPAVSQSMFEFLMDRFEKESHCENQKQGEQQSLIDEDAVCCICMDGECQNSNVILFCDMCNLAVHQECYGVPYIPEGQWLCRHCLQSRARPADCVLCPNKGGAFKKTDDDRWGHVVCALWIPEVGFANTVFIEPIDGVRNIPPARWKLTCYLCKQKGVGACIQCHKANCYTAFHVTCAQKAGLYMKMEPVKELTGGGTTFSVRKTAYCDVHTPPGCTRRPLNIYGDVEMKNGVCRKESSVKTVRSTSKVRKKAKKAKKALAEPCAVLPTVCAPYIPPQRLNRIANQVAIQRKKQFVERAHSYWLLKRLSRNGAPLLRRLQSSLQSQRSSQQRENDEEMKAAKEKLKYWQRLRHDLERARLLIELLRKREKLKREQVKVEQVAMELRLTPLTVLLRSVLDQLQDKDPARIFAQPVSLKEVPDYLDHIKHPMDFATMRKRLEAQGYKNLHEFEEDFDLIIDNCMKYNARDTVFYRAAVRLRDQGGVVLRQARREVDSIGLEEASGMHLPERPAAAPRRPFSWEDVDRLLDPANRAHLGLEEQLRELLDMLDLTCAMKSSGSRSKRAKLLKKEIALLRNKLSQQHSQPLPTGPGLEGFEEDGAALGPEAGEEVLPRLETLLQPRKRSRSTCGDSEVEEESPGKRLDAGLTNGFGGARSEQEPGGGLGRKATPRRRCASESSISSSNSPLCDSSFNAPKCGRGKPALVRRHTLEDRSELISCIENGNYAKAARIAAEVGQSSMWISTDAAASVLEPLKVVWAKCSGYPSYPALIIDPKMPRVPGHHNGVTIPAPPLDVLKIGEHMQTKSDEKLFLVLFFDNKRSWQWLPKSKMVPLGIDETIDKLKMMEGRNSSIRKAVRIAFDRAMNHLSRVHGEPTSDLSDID

[18] = molecular target: GABA-A receptor; anion channel (Rattus norvegicus) (UniProt O09028+P15431+P18506+P18508+P19969+P20236+P23574+P23576+P28471+P28473+P30191+P62813+P63079+P63138+Q91ZM7+Q9ES14); conditions: Compound concentration 10.0 uM
[19] = molecular target: Histone acetyltransferase KAT2B (Homo sapiens, UniProt Q92831); assay: PCAF DiscoverX BROMOscan
[20] = molecular target: Bromodomain-containing protein 7 (Homo sapiens, UniProt Q9NPI1); assay: BRD7 DiscoverX BROMOscan
[21] = molecular target: 5-hydroxytryptamine receptor 2A (Homo sapiens, UniProt P28223); conditions: Compound concentration 10.0 uM
[22] = molecular target: Muscarinic acetylcholine receptor M5 (Homo sapiens) (UniProt P08912); conditions: Compound concentration 10.0 uM
[23] = molecular target: Voltage-gated potassium channel, IKs; KCNQ1(Kv7.1)/KCNE1(MinK) (Homo sapiens, UniProt P15382+P51787); assay: Cross screening panel; assay type: protein-complex assay
[24] = molecular target: Bromodomain-containing protein 9 (Homo sapiens, UniProt Q9H8M2); assay: BRD9 DiscoverX BROMOscan
[25] = molecular target: Transcription intermediary factor 1-alpha (Homo sapiens, UniProt O15164); assay: TRIM24(BROMO.) DiscoverX BROMOscan
[26] = molecular target: Bromodomain and WD repeat-containing protein 1 (Homo sapiens, UniProt Q9NSI6); assay: WDR9(2) DiscoverX BROMOscan
[27] = molecular target: Histamine H1 receptor (Homo sapiens, UniProt P35367); conditions: Compound concentration 10.0 uM
[28] = molecular target: Muscarinic acetylcholine receptor M1 (Homo sapiens) (UniProt P11229); conditions: Compound concentration 10.0 uM
[29] = molecular target: ATPase family AAA domain-containing protein 2 (Homo sapiens, UniProt Q6PL18); assay: ATAD2A DiscoverX BROMOscan
[30] = molecular target: T1, Bromodomain-containing protein 2; assay: TR-FRET assay (BRD2 BD1)
[31] = molecular target: Bromodomain-containing protein 3 (Homo sapiens, UniProt Q15059); assay: TR-FRET assay (BRD3 BD2)
[32] = molecular target: T2, 5-hydroxytryptamine receptor 3A (Homo sapiens, UniProt P46098); assay: GPCRScan assay: inhibition of 5-HT3; set-up: radioligand conc. used [nm] 1.0 – 2.0, parental cells HEKT
T2 sequence (P46098 whole entry): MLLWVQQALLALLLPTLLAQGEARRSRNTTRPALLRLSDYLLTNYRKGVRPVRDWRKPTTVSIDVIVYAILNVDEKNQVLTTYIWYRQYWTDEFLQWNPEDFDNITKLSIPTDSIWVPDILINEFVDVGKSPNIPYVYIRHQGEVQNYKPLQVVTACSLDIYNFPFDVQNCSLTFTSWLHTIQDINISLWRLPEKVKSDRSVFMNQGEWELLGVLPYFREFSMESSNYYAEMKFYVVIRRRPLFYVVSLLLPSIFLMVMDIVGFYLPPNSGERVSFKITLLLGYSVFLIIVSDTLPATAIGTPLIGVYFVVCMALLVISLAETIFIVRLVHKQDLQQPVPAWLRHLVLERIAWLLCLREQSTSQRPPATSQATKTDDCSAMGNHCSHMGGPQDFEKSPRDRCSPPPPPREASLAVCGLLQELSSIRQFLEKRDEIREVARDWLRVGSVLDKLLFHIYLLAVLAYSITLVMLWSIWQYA

[33] = molecular target: Alpha-1A adrenergic receptor (Homo sapiens) (UniProt P35348); conditions: Compound concentration 10.0 uM
[34] = molecular target: Muscarinic acetylcholine receptor M4 (Homo sapiens) (UniProt P08173); conditions: Compound concentration 10.0 uM
Muscarinic acetylcholine receptor M4 (Homo sapiens), sequence (P08173 whole entry): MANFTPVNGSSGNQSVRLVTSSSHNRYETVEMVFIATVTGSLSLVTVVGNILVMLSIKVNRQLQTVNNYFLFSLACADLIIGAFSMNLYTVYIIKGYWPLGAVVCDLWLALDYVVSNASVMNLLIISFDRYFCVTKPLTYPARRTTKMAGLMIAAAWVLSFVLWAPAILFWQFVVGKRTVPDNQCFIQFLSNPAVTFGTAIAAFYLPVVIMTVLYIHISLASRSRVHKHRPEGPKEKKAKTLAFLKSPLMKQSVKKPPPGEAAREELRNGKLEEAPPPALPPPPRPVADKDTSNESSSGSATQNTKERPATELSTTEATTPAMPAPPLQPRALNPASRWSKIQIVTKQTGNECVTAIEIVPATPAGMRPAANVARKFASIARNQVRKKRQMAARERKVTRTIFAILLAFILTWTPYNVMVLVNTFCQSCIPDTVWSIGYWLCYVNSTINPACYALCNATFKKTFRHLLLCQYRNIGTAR

[35] = molecular target: D(3) dopamine receptor (Homo sapiens, UniProt P35462); assay: GPCRScan assay: inhibition of D3; set-up: radioligand conc. used [nm] 0.5 – 1.8, parental cells HEKT
D(3) dopamine receptor, sequence (P35462 whole entry): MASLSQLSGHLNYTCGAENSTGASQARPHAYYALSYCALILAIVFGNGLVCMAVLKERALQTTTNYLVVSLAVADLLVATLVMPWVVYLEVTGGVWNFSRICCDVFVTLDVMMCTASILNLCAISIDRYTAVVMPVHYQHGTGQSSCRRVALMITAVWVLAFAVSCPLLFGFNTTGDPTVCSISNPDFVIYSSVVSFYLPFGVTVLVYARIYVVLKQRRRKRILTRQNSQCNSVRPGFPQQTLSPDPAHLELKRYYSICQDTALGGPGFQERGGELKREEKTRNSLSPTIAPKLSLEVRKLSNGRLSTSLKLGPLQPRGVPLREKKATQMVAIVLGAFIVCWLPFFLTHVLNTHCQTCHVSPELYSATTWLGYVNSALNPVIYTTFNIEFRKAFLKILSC

[36] = molecular target: CREB-binding protein (Homo sapiens, UniProt Q92793); assay: CREBBP DiscoverX BROMOscan
[37] = molecular target: Sodium-dependent noradrenaline transporter (Homo sapiens, UniProt P23975); conditions: Compound concentration 10.0 uM
[38] = molecular target: Sodium-dependent dopamine transporter (Homo sapiens) (UniProt Q01959); conditions: Compound concentration 10.0 uM
[39] = molecular target: GABA-A receptor; anion channel; assay: GPCRScan assay: inhibition of GABAA; assay type: protein-complex assay, Rattus norvegicus; set-up: radioligand conc. used [nm] 9.50 – 25.0, parental cells brain tissue

T1 sequence (P25440 whole entry): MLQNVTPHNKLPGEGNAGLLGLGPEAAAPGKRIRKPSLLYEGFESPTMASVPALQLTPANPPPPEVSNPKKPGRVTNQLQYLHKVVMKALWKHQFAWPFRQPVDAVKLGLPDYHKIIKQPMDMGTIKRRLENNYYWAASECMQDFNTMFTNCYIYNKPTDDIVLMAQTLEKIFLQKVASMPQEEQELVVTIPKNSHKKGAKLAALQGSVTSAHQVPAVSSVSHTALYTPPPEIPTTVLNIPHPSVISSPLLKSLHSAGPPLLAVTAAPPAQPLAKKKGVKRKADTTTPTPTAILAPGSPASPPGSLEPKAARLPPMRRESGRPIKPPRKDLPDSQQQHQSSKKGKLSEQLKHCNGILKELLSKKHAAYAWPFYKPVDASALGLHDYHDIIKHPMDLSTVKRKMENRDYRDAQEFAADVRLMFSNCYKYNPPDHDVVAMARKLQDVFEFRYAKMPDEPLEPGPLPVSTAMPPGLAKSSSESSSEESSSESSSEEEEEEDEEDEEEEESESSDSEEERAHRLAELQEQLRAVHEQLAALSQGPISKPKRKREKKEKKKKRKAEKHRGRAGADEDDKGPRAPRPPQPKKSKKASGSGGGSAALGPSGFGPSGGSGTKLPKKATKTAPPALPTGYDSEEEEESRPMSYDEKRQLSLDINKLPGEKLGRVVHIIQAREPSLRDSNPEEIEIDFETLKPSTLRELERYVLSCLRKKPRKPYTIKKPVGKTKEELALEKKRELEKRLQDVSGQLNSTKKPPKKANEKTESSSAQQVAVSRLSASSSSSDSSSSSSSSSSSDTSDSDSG

COCc1nc2cnc3cc(-c4c(C)noc4C)c(OC[C@H]4CCNC4)cc3c2n1[C@H](C)c1ccccc1 [GSK778]
Kd [1]: 0.013 µM
inhibition [2]: 69.8%
Kd [3]: 30 µM
inhibition [4]: 16.9%
inhibition [5]: 4.05%
Kd [6]: 30 µM
inhibition [7]: -9.08%
Kd [8]: 30 µM
inhibition [9]: 14.8%
Kd [10]: 25 µM
inhibition [11]: 23%
inhibition [12]: 2.89%
Kd [13]: 30 µM
inhibition [14]: 79.5%
Kd [15]: 30 µM
Ki ([16]; read-out: Ki): 0.857 µM
Ki ([16]; read-out: pKi (converted)): 0.813 µM
Kd [17]: 30 µM
inhibition [18]: 91.6%
Kd [19]: 33 µM
Kd [20]: 30 µM
inhibition [21]: -5.06%
inhibition [22]: 24.6%
IC50 [23]: > 25.1 µM
Kd [24]: 30 µM
Kd [25]: 30 µM
Kd [26]: 30 µM
inhibition [27]: 0.33%
inhibition [28]: -1.37%
Kd [29]: 30 µM
IC50 [30]: 0.075 µM (active)
IC50 [31]: 1.21 µM (not active)
Ki [32]: 4.46 µM
inhibition [33]: 0.31%
inhibition [34]: 15.7%
Ki ([35]; read-out: Ki): 0.486 µM
Ki ([35]; read-out: pKi (converted)): 0.407 µM
Kd [36]: 3.8 µM
inhibition [37]: 34.5%
inhibition [38]: 27.9%
Ki [39]: 1.6 µM
pKi [39]: 5.81

From ChEMBL document CHEMBL4630907 (2021)
